Measured values reported in patent US20220107317A1, “COMPOSITIONS AND METHODS FOR DIAGNOSING AND TREATING CORONAVIRUS DISEASE 2019” (priority 2020, published 2022).

B1: T2 peptide (peptide)
peptide: DLSGFVRPDPVIISSPLSTFFSDAGYKSLLKITMTQSTVPLNLIRVHLMVAVEGHLFQKSFQASPNLAYTFIWDKTDAYGQRVYGLSDAVVSVGFEYETCPSLILWEKRTALLQGFELD
modifications: not checked

Experiments:
[1] = system: nCoV-S Luc pseudovirus of SARS-CoV-2; assay type: cell-based
[2] = molecular target: SARS-CoV-2 spike protein (Severe acute respiratory syndrome coronavirus 2, UniProt P0DTC2)
[3] = molecular target: SARS-CoV-2 spike protein (SARS-CoV-2), P0DTC2

| Molecule | inhibition of infection of OECM1 cells [1] | biosensing sensitivity [2] [ng in 1 μL per test] | concentration of SARS-CoV-2 spike protein at which binding activity is shown [2] [pM] | biosensing sensitivity (ng in 1 µL per test) [3] | lowest spike protein concentration showing binding activity [3] [pM] |
| --- | --- | --- | --- | --- | --- |
| DLSGFVRPDPVIISSPLSTFFSDAGYKSLLKITMTQSTVPLNLIRVHLMVAVEG HLFQKSFQASPNLAYTFIWDKTDAYGQRVYGLSDAVVSVGFEYETCPSLILW EKRTALLQGFELD [T2 peptide] | significantly inhibited | 0.1 | 0.1 |  |  |
| B1 |  |  |  | 0.1 | 0.1 |
